Values quoted from earlier work in patent US9598354B2, “Fumarate compounds, pharmaceutical compositions thereof, and methods of use” (priority 2015, dated 2017).

aqueous solubility: poor
SMILES: COC(=O)/C=C/C(=O)OC [DMF, dimethylfumarate]
